Assay results: patent US9505753B2, “Inhibitors of D-amino acid oxidase” (THE JOHNS HOPKINS UNIVERSITY, priority 2012, dated 2016)

The molecules below were run against human recombinant D-amino acid oxidase (Homo sapiens (Human), UniProt P14920) (assay: In vitro D-amino acid oxidase (DAAO) assay, 96-well plate). Settings: human recombinant DAAO; D-serine 5 mM, FAD 1 μM, 20 min, room temperature, Tris buffer pH 8.5; read-out: Inhibition of DAAO IC50.
Format: biochemical
Method: A reliable 96-well plate D-amino acid oxidase (DAAO) assay was developed based on previously published reports (J. Biol. Chem. 277: 27782 (2002)). […] All reactions were carried out for 20 min at room temperature in a 100-μL volume in Tris buffer (50 mM, pH 8.5). Additionally, stock solutions and serial dilutions of potential DAO inhibitors were made in 10:90 DMSO:buffer with a final assay DMSO concentration of 1%.

Chain of human recombinant D-amino acid oxidase (P14920 whole entry): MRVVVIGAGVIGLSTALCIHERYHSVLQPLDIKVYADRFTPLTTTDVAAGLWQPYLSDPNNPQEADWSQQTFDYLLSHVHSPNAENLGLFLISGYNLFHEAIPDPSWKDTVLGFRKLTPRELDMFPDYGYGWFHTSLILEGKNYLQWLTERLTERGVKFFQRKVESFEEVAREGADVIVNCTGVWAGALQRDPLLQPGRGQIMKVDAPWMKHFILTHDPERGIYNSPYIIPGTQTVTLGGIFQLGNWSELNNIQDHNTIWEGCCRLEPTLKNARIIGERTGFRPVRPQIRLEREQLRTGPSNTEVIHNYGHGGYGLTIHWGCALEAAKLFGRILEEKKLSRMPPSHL

Row | SMILES | IC50
1 | O=c1[nH]c(=O)n(CCc2ccccc2)nc1O [Compound 5a, 6-Hydroxy-2-phenethyl-1,2,4-triazine-3,5(2H,4H)-dione] | 80 nM
2 | O=c1[nH]c(=O)n(Cc2ccc3ccccc3c2)nc1O [Compound 5aa, 6-Hydroxy-2-(naphthalen-2-ylmethyl)-1,2,4-triazine-3,5(2H,4H)-dione] | 30 nM
3 | O=c1[nH]c(=O)n(Cc2ccc3cc(F)ccc3c2)nc1O [Compound 5ab, 2-((6-Fluoronaphthalen-2-yl)methyl)-6-hydroxy-1,2,4-triazine-3,5(2H,4H)-dione] | 100 nM
4 | O=c1[nH]c(=O)n(CCc2cccc(Oc3ccccc3)c2)nc1O [Compound 5ad, 6-Hydroxy-2-(3-phenoxyphenethyl)-1,2,4-triazine-3,5(2H,4H)-dione] | 300 nM
5 | O=c1[nH]c(=O)n(Cc2ccc(Oc3ccccc3F)cc2)nc1O [Compound 5ae, 2-(4-(2-Fluorophenoxyl)benzyl)-6-hydroxy-1,2,4-triazine-3,5(2H,4H)-dione] | 300 nM
6 | O=c1[nH]c(=O)n(Cc2ccc(-c3ccccc3)cc2)nc1O [Compound 5af, 2-(Biphenyl-4-ylmethyl)-6-hydroxy-1,2,4-triazine-3,5(2H,4H)-dione] | 300 nM
7 | O=c1[nH]c(=O)n(CCc2ccc(F)cc2)nc1O [Compound 5b, 2-(4-Fluorophenethyl)-6-hydroxy-1,2,4-triazine-3,5(2H,4H)-dione] | 60 nM
8 | O=c1[nH]c(=O)n(CCc2cccc(F)c2)nc1O [Compound 5c, 2-(3-Fluorophenethyl)-6-hydroxy-1,2,4-triazine-3,5(2H,4H)-dione] | 60 nM
9 | O=c1[nH]c(=O)n(CCc2ccccc2F)nc1O [Compound 5d, 2-(2-Fluorophenethyl)-6-hydroxy-1,2,4-triazine-3,5(2H,4H)-dione] | 80 nM
10 | O=c1[nH]c(=O)n(CCc2ccc(Cl)cc2)nc1O [Compound 5e, 2-(4-Chlorophenethyl)-6-hydroxy-1,2,4-triazine-3,5(2H,4H)-dione] | 30 nM
11 | O=c1[nH]c(=O)n(CCc2cccc(Cl)c2)nc1O [Compound 5f, 2-(3-Chlorophenethyl)-6-hydroxy-1,2,4-triazine-3,5(2H,4H)-dione] | 60 nM
12 | O=c1[nH]c(=O)n(CCc2ccccc2Cl)nc1O [Compound 5g, 2-(2-Chlorophenethyl)-6-hydroxy-1,2,4-triazine-3,5(2H,4H)-dione] | 100 nM
13 | Cc1ccc(CCn2nc(O)c(=O)[nH]c2=O)cc1 [Compound 5h, 6-Hydroxy-2-(4-methylphenethyl)-1,2,4-triazine-3,5(2H,4H)-dione] | 100 nM
14 | Cc1cccc(CCn2nc(O)c(=O)[nH]c2=O)c1 [Compound 5i, 6-Hydroxy-2-(3-methylphenethyl)-1,2,4-triazine-3,5(2H,4H)-dione] | 60 nM
15 | Cc1ccccc1CCn1nc(O)c(=O)[nH]c1=O [Compound 5j, 6-Hydroxy-2-(2-methylphenethyl)-1,2,4-triazine-3,5(2H,4H)-dione] | 60 nM
16 | O=c1[nH]c(=O)n(CCc2ccc(C(F)(F)F)cc2)nc1O [Compound 5k, 6-Hydroxy-2-(4-(trifluoromethyl)phenethyl)-1,2,4-triazine-3,5(2H,4H)-dione] | 80 nM
17 | O=c1[nH]c(=O)n(CCc2cccc(C(F)(F)F)c2)nc1O [Compound 5l, 6-Hydroxy-2-(3-(trifluoromethyl)phenethyl)-1,2,4-triazine-3,5(2H,4H)-dione] | 90 nM
18 | O=c1[nH]c(=O)n(CCc2ccc(Cl)cc2Cl)nc1O [Compound 5m, 2-(2,4-Dichlorophenethyl)-6-hydroxy-1,2,4-triazine-3,5(2H,4H)-dione] | 80 nM
19 | O=c1[nH]c(=O)n(CCc2cccc3ccccc23)nc1O [Compound 5n, 6-Hydroxy-2-(2-(naphthalen-1-yl)ethyl)-1,2,4-triazine-3,5(2H,4H)-dione] | 100 nM
20 | O=c1[nH]c(=O)n(CCc2ccc(-c3ccccc3)cc2)nc1O [Compound 5o, 2-(2-(Biphenyl-4-yl)ethyl)-6-hydroxy-1,2,4-triazine-3,5(2H,4H)-dione] | 30 nM
